Where “and” joins values, the source holds several entries; their conditions need not be identical. Identical values can stand only once.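 All cell lines were grown in 96-well plates and treated with compound for 48 hours. GI50 = concentration required for 50% inhibition of growth. TGI: concentration producing complete growth inhibition.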
test system: M14 melanoma; assay: DTP human tumour cell line panel, 48 h

**Q.** How did the GI50 turn out when `CC1(C)OC2[C@@H](CNC(=O)NC(=O)NC(=O)CI)O[C@@H](n3cnc4c(NC(=O)Nc5ccccc5)ncnc43)[C@H]2O1` (some centres not stated) was run?
**A.** The GI50 was 6.95 µM.

**Q.** And the TGI?
**A.** Its TGI is 14.3 µM.

**Q.** Which results are given for `COc1cc(C2=C(c3ccccc3)COC2=O)cc(OC)c1OC`?
**A.** GI50: 1.79 µM; TGI: > 27.7 µM

**Q.** How did the GI50 turn out when `COc1cc(C2NC(=O)c3ccccc3N2)ccc1OCCCCCOc1c(OC)cc(C2=NOC(c3cc(OC)c(OC)c(OC)c3)C2)cc1OC` (configuration not stated) was run?
**A.** Its GI50 is 20.4 µM.

**Q.** And the TGI?
**A.** The TGI was over 93 µM.

**Q.** What does the source list for `O=C1Nc2c(C(F)(F)F)cccc2[C@]1(c1ccc(O)cc1)c1ccc(OC(F)(F)F)cc1`?
**A.** GI50: 14.2 µM; TGI: 29.2 µM

**Q.** `O=C1O[C@@H](c2ccc3c(c2)OCO3)C2C(=O)O[C@@H](c3ccc4c(c3)OCO4)C12` (some centres not stated) was tested. Which TGI did it give?
**A.** Its TGI is over 100 µM.

**Q.** `O=C1CCC(=O)N2CCCCN12` was tested. Which TGI did it give?
**A.** Its TGI is over 100 µM.

**Q.** How did the TGI turn out when `CC(C)C(=O)NC(=S)Nc1ccc([N+](=O)[O-])cc1C#N` was run?
**A.** The TGI was over 100 µM.

**Q.** Which TGI does the source give for `C/C(CC(=O)Nc1cc(Cl)c(Cl)cc1Cl)=N\NC(N)=O` here?
**A.** Its TGI is over 100 µM.

**Q.** For `CC(=O)OC[C@]1(C)C=C2C(=O)[C@](C)(O)C3(CC3)C(C)=C2[C@H]1O`, which GI50 is on record?
**A.** Its GI50 is 0.0899 µM.

**Q.** What does the source list for `Oc1ccc(NCc2nc3ccccc3[nH]2)cc1`?
**A.** GI50: > 100 µM; TGI: > 100 µM

**Q.** `O=C(O)CNS(=O)(=O)c1ccc(NCc2ccccc2)cc1` was tested. Which TGI did it give?
**A.** Its TGI is over 100 µM.

**Q.** What does the source list for `O=C1c2cc(Cl)ccc2S(=O)(=O)c2c(NCCCNCCO)nc3ccccc3c21`?
**A.** GI50: 1.95 µM; TGI: 4.9 µM

**Q.** For `CC[C@@H]1CN(C)[C@H]2Cc3c([nH]c4ccccc34)C(=O)C[C@H]1C2C(=O)OC` (some centres not stated), which TGI is on record?
**A.** The TGI was over 100 µM.

**Q.** How did the TGI turn out when `COc1ccc(/C=C/c2nccc3ccccc23)cc1OC` was run?
**A.** The TGI was over 10 µM.

**Q.** `O=C1CCC2(c3ccc(F)cc3)Nc3cc(Cl)ccc3N12` (configuration not stated) was tested. Which TGI did it give?
**A.** The TGI was over 100 µM.

**Q.** How did the GI50 turn out when `O=c1[nH]ncc(Br)c1Br` was run?
**A.** The GI50 was 2.09 µM.

**Q.** And the TGI?
**A.** Its TGI is 4.23 µM.

**Q.** How did the TGI turn out when `COc1ccc(-c2cc(=O)c3c(OC)c(OC)c(OC)cc3o2)cc1` was run?
**A.** Its TGI is over 100 µM.

test system: BT-549 breast; assay: DTP human tumour cell line panel, 48 h

**Q.** `FC(F)(F)c1cccc(Nc2nccc(-c3cnn4nc(-c5ccccc5)ccc34)n2)c1` was tested. Which GI50 did it give?
**A.** The GI50 was 18.8 µM.

**Q.** And the TGI?
**A.** The TGI was over 25 µM.

**Q.** `CC[C@@H]1C(=O)N(C)c2cnc(Nc3ccc(C(=O)NC4CCN(C)CC4)cc3OC)nc2N1C1CCCC1` was tested. Which GI50 did it give?
**A.** The GI50 was 0.0948 µM and 0.0414 µM.

**Q.** And the TGI?
**A.** The TGI was > 10 µM and 12.2 µM.

**Q.** Which results are given for `C=C1C(=O)O[C@H]2[C@H]1CC/C(COC(=O)c1ccc3ccccc3c1)=C\CC[C@@]1(C)O[C@@H]21`?
**A.** GI50: 0.57 µM; TGI: 2.03 µM

**Q.** `CC(C)c1nc(CN(C)C(=O)N[C@H](C(=O)N[C@@H](Cc2ccccc2)C[C@H](O)[C@H](Cc2ccccc2)NC(=O)OCc2cncs2)C(C)C)cs1` was tested. Which GI50 did it give?
**A.** Its GI50 is 8.71 µM.

**Q.** And the TGI?
**A.** The TGI was over 76.5 µM.

**Q.** With `Oc1ccc(CN2CCC(N3CCCCC3)CC2)c2cccnc12` as the compound, how does the GI50 read?
**A.** Its GI50 is 11.5 µM.

**Q.** And the TGI?
**A.** Its TGI is over 100 µM.

**Q.** How did the GI50 turn out when `CC[C@@]1(O)C(=O)OCc2c1cc1n(c2=O)Cc2c-1nc1cc3c(cc1c2CCl)OCO3` was run?
**A.** The GI50 was 0.106 µM.

**Q.** And the TGI?
**A.** Its TGI is 3.99 µM.

**Q.** For `CC1(C)OC2[C@@H](CNC(=O)NC(=O)NC(=O)CI)O[C@@H](n3cnc4c(NC(=O)Nc5ccccc5)ncnc43)[C@H]2O1` (some centres not stated), which GI50 is on record?
**A.** Its GI50 is 7.83 µM.

**Q.** And the TGI?
**A.** The TGI was 14.7 µM.

**Q.** With `COc1cc(C2=C(c3ccccc3)COC2=O)cc(OC)c1OC` as the compound, how does the GI50 read?
**A.** The GI50 was 33.9 µM.

**Q.** What about the TGI of the same compound?
**A.** The TGI was over 100 µM.

**Q.** For `COc1cc(C2NC(=O)c3ccccc3N2)ccc1OCCCCCOc1c(OC)cc(C2=NOC(c3cc(OC)c(OC)c(OC)c3)C2)cc1OC` (configuration not stated), which GI50 is on record?
**A.** Its GI50 is 0.507 µM.

**Q.** What about the TGI of the same compound?
**A.** The TGI was over 100 µM.

**Q.** How did the GI50 turn out when `O=C1Nc2c(C(F)(F)F)cccc2[C@]1(c1ccc(O)cc1)c1ccc(OC(F)(F)F)cc1` was run?
**A.** Its GI50 is 2.18 µM.

**Q.** What about the TGI of the same compound?
**A.** The TGI was 8.43 µM.

**Q.** `CC(=O)OC[C@]1(C)C=C2C(=O)[C@](C)(O)C3(CC3)C(C)=C2[C@H]1O` was tested. Which GI50 did it give?
**A.** Its GI50 is 0.148 µM.

**Q.** And the TGI?
**A.** Its TGI is 0.556 µM.

**Q.** For `Oc1ccc(NCc2nc3ccccc3[nH]2)cc1`, which GI50 is on record?
**A.** Its GI50 is 50.1 µM.

**Q.** What about the TGI of the same compound?
**A.** Its TGI is over 100 µM.

**Q.** For `O=C1c2cc(Cl)ccc2S(=O)(=O)c2c(NCCCNCCO)nc3ccccc3c21`, which GI50 is on record?
**A.** Its GI50 is 3.99 µM.

**Q.** What about the TGI of the same compound?
**A.** The TGI was 14.6 µM.

**Q.** `CC[C@@H]1CN(C)[C@H]2Cc3c([nH]c4ccccc34)C(=O)C[C@H]1C2C(=O)OC` (some centres not stated) was tested. Which TGI did it give?
**A.** The TGI was over 100 µM.

**Q.** How did the TGI turn out when `COc1ccc(/C=C/c2nccc3ccccc23)cc1OC` was run?
**A.** The TGI was over 10 µM.
